These results are taken from US20100317706A1, “HNF4alpha MODULATORS AND METHODS OF USE” (Bumham Institute for Medical Research, priority 2009, published 2010).

One data set has as its system human insulin promoter. As to the kind of experiment: Insulin promoter-GFP (ins-GFP transgene) assay in T6PNE cells. The data set is classed as cell-based. The settings on record: for repression of insulin promoter activity (qualitative): T6PNE ins-eGFP. An excerpt: Primary β-cells are in short supply and have a strong tendency to undergo apoptosis when manipulated in culture. Therefore, a β-cell model was used for the studies regarding β-cell growth and differentiation. T6PNE cells were derived from human fetal islets and were engineered to express the transcription factors PDX-1, NeuroD1, and E47, which are all present in the human β-cell. […] Titrations were used to measure the mRNA or protein amount of insulin expression. In order to adapt the cell line for HTS assays, a lentiviral vector expressing the insulin promoter-e green fluorescent protein (GFP) cassette ins-GFP transgene was used to infect T6PNE. As a result, compounds that targeted the insulin promoter could be visibly detected by changes in the green channel (observing GFP). […] This increase correlates with that of the endogenous insulin message. Therefore, expression in the transfunctioned cell can be used as a baseline so both up and down regulators of the insulin promoter can be monitored in the screening assays. […] of the insulin promoter are useful for analyzing the governing pathways in diabetes. However, both up and down modulators were screened for. […] Insulin expression was monitored and visualized by the ins-GFP transgene. Hits were determined and dependent on the ability to differentiate between a baseline condition and the corresponding positive or negative control. […]
The HTS was performed in a 384-well format where primed T6PNE cells express the ins-GFP transgene and the test compound was added 24 hours later. […] The Images were then analyzed using algorithms (Jeff Price at the Screening Center at the Burnham Institute). Images of each well were captured in the blue channel (to evaluate cell number), the green channel (a readout for insulin gene expression) and the red channel (to eliminate autofluorescent compounds). […] Furthermore, hits are determined by applying threshold intensity gates on the green channel and counting the number of cells above or below that gate in a given well. […]

For data set [1] the following is noted: hoFH patients, 10 mg/day added to maximal-dose statin regimen; cited from earlier work.
In the next data set the test system is HBV. The data set can be described thus: HBsAg expression in Huh7 cells transfected with wild type HBV construct (pWTD). The data set is classed as cell-based, Hepatitis B virus. Particulars: GP33 and GP36 doublet bands. An excerpt:
BIM5078 is an HNF4α antagonist and can be useful in treatment of diseases involving HNF4α modulation. There are a number of HNF4α binding sites in the HBV genome, including the enhancer region, the core promoter and the polymerase. BIM5078 can downregulate the core and polymerase, and it has been discovered that it can effectively suppress or eliminate HBV proliferation. Also, the HNF4α binding sites are well-conserved and no mutations of these sites have yet been discovered in the various HBV strains. Thus, targeting HNF4α can circumvent the resistance seen with traditional therapies. […] The ability of the HNF4α antagonist BIM5078 to reduce viral production in Huh7 cells transfected with the wild-type HBV construct (pWTD) was tested. […] The large decrease in the two glycosylation forms of the surface antigen was visualized as doublet bands (FIG. 11).

The test system of the next data set is HNF1α. The data set can be described thus: HNF1α transcription. In kind it is cell-based. Here is the method: HNF1α is a downstream target of HNF4α and has a known binding site on the human insulin gene promoter. […] It is unclear whether HNF4α is modulating the insulin promoter directly or indirectly through a downstream target. Overexpression of HNF1α or HNF4α would overcome the repressive effects of BIM5078. The repressive effect of BIM5078 was lost when it was added to T6PNE cells with high levels of induced E47 (FIG. 10). High E47 levels are thought to resemble the normal state of a (3-cell while low levels of E47 to simulate the stress condition.

A further data set has as its target T1, rat HNF4α LBD (Rattus norvegicus, UniProt P22449).
T1 sequence (P22449 147-377 limits assumed): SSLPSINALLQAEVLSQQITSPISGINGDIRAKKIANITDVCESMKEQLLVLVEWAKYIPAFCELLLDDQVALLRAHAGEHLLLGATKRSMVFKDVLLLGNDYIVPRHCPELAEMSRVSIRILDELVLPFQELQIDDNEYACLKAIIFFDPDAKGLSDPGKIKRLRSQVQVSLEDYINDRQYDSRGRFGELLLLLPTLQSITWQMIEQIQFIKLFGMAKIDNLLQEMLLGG
The data set can be described thus: Direct binding by quenching of intrinsic fluorescence of HNF4α LBD. Particulars: quenching of Tyr/Trp intrinsic fluorescence. As to the method: FIGS. 12A and 12B show BIM5078 binding to HNF4α ligand-binding domain (LBD). A. Binding of BIM5078 was analyzed by quenching of intrinsic fluorescence of rat HNF4α LBD aromatic amino acids Tyr/Trp. […] B. BIM5078 was docked to rat HNF4α LBD (PDB Code: 1m7w) using the program BioMedCache. […] Moreover, the chloro group of BIM5078 forms a hydrophobic interaction with the side chain of the binding-pocket residue Val 178.

The next data set has as its target T2, human PPARγ (Homo sapiens, UniProt P37231).
T2 construct: expressed in transfected cells; host or cells: HeLa cells
T2 sequence (P37231 1-505): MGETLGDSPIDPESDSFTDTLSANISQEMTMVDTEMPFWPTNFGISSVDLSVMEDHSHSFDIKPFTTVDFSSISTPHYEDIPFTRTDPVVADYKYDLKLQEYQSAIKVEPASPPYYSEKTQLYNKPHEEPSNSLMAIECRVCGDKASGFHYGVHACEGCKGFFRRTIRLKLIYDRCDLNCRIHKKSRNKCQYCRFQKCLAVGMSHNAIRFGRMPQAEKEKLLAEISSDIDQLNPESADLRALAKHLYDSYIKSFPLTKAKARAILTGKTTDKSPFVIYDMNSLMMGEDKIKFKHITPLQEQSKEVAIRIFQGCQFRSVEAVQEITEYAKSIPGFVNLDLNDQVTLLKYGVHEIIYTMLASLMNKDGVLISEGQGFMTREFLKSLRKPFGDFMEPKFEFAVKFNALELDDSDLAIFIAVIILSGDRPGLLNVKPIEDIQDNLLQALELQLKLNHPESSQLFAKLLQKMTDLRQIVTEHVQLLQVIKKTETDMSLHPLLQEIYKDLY
As to the kind of experiment: PPAR response element (PPRE)-luciferase reporter assay in HeLa cells. The settings on record: enhanced by co-transfection with PPARγ expression vector. The data set is classed as cell-based. As to the method:
The core structure of BIM5078, benzimidazole, is related to known PPARγ compounds that functions as agonists or antagonists. BIM5078 was used in a PPAR response element (PPRE)-luciferase reporter assay. HeLa cells were co-transfected with a PPAR response element (PPRE) reporter plasmid and a human PPARγ expression vector. […] Known PPARγ agonists were used as positive controls. The same PPARγ agonist compounds were tested on T6PNE ins-eGFP for their ability to repress the insulin promoter. Known PPARγ agonists are unable to suppress insulin gene transcription. Similarly, other PPAR agonists of the alpha and delta class were also negative in the assay. However, because HNF4α also binds to PPREs, BIM5078's ability to bind HNF4α was further investigated.
On the technique in general: Reporter assays use an easily measured gene product as a stand-in for the process of interest.

For the next data set, the target named is T3, HNF4α (Homo sapiens, UniProt P41235).
T3 construct: endogenous in cells
T3 sequence (P41235 1-474): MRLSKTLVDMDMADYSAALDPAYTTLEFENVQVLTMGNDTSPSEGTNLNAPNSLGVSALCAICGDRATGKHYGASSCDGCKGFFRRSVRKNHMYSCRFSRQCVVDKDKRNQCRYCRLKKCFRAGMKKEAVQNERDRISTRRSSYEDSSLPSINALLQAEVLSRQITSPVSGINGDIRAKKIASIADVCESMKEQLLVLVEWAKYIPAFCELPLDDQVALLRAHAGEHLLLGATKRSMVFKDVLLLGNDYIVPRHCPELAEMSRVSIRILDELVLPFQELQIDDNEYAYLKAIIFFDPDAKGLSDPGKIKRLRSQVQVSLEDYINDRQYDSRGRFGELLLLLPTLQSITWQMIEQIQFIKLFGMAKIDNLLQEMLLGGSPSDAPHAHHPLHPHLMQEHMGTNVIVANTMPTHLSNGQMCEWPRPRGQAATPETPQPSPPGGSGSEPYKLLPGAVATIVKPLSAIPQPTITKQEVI
The data set can be described thus: HNF4α subcellular localization. The data set is classed as cell-based. An excerpt:
Many ligands for nuclear receptor subfamilies induce the translocation of their receptors between the cytoplasm and the nucleus.

The subject of data set [2] is endogenous insulin message. As to the kind of experiment: Endogenous insulin message in T6PNE cells. In kind it is cell-based, human. An excerpt:
Primary β-cells are in short supply and have a strong tendency to undergo apoptosis when manipulated in culture. Therefore, a β-cell model was used for the studies regarding β-cell growth and differentiation. T6PNE cells were derived from human fetal islets and were engineered to express the transcription factors PDX-1, NeuroD1, and E47, which are all present in the human β-cell. […] Titrations were used to measure the mRNA or protein amount of insulin expression. In order to adapt the cell line for HTS assays, a lentiviral vector expressing the insulin promoter-e green fluorescent protein (GFP) cassette ins-GFP transgene was used to infect T6PNE. As a result, compounds that targeted the insulin promoter could be visibly detected by changes in the green channel (observing GFP). […] Therefore, expression in the transfunctioned cell can be used as a baseline so both up and down regulators of the insulin promoter can be monitored in the screening assays. […] Insulin expression was monitored and visualized by the ins-GFP transgene. Hits were determined and dependent on the ability to differentiate between a baseline condition and the corresponding positive or negative control. […]
A few of these were selected for further evaluation. […] The initial confirmatory assay of BIM5078 was performed by measuring the readout of the insulin-GFP transgene. […]

Molecules are shown by their SMILES. “Also recorded” adds a separate entry of the source.

Take `Cc1nc2ccccc2n1S(=O)(=O)c1cccc([N+](=O)[O-])c1` [BI-6002, 2-Methyl-1-(3-nitrophenylsulfonyl)-1H-benzo[d]imidazole]: the melting point (as a rule, the temperature of the solid-liquid transition) was in the range of 148 to 150 °C. The same measure, in the same setting: the result for `Cc1nc2ccccc2n1C(=O)c1cc([N+](=O)[O-])ccc1Cl` [BI-6009, 1-(2-Chloro-5-nitrobenzoyl)-2-methyl-1H-benzo[d]imidazole] reads 157 to 159 °C; that for `Cc1ccc([N+](=O)[O-])cc1S(=O)(=O)n1cnc2ccccc21` [BI-6016, 1-(2-Methyl-5-nitrobenzenesulfonyl)benzimidazole], 159 to 161 °C. In the case of `CCCCCCCCCCCCCCCC(=O)O` [palmitic acid, reference compound], the “repression of insulin promoter activity (qualitative)” value with human insulin promoter is “suppresses the insulin promoter activity in a dose-dependent fashion”.

Take `Cc1nc2ccccc2n1C(=O)c1cccc([N+](=O)[O-])c1` [BI-6011, 2-Methyl-1-(3-nitrobenzoyl)-1H-benzo[d]imidazole]: the melting point was in the range of 120 to 122 °C.

Turning to `O=C(c1cc([N+](=O)[O-])ccc1Cl)n1cnc2ccccc21` [BI-6010, 1-(2-Chloro-5-nitrobenzoyl)-1H-benzo[d]imidazole], the melting point lay in the range of 149 to 151 °C. As for `O=C1[C@H](CC[C@H](O)c2ccc(F)cc2)[C@@H](c2ccc(O)cc2)N1c1ccc(F)cc1` [ezetimibe], the “total reduction of LDL-C levels” value in [1] is given as 27%.

As for `CCOC(=O)c1ccc(Cl)c(S(=O)(=O)n2c(C)nc3ccccc32)c1` [BI-6013, 1-(5-Carbethoxy-2-chlorophenylsulfonyl)-2-methyl-1H-benzo[d]imidazole], the melting point lay in the range of 110 to 112 °C.

Take `O=[N+]([O-])c1cccc(S(=O)(=O)n2cnc3ccccc32)c1` [BI-6001, 1-(3-Nitrophenylsulfonyl)-1H-benzo[d]imidazole]: the melting point was 154 to 156 °C. With `Cc1nc2ccccc2n1S(=O)(=O)c1cc([N+](=O)[O-])ccc1Cl` [BIM5078, 1-[(2′-chloro-5-nitrophenyl)sulfonyl]-2-methyl-1H-benzimidazole], the “HBV surface antigen (HBsAg) level” value in the data set on HBV is “decreased the HBsAg protein expression; also recorded: decreased their levels of surface antigen”. The “effect on HNF1α transcription” value in the data set with HNF1α was “decrease the HNF1α transcription”. In addition, on rat HNF4α LBD, binding was put at a Kd of 11.9 nM. Also, in the data set on human insulin promoter (5 μM, T6PNE cells), the “suppression of GFP expression (insulin-GFP transgene)” value is given as “up to 30 fold”. In addition, the “repression of insulin promoter activity (qualitative)” value with human insulin promoter is listed as “downregulator of human insulin promoter activity”. The “activation of PPRE reporter” value at human PPARγ was “activated the PPRE”. Moreover, the “localization of HNF4α upon compound addition” value on HNF4α is listed as “localized entirely in the nucleus”. Further, the “repression of insulin message” value in [2] (5 μM, insulin message induced by 1 μM 4-hydroxytamoxifen) is 6 fold. Also, the “repressive effect on insulin expression at high E47” value in data set [2] (T6PNE cells with high levels of induced E47 (high 4OHT)) was “lost”. `O=C(c1cccc([N+](=O)[O-])c1)n1cnc2ccccc21` [BI-6012, 1-(3-Nitrobenzoyl)-1H-benzo[d]imidazole]: the melting point lay within 133 to 135 °C.
